In patent US12636291B2, “Compositions and methods relating to use of agonists of ALPHA5-containing GABAA receptors” (Centre for Addiction and Mental Health, priority 2019, dated 2026):

Tested on: Layer II/III pyramidal cells of prefrontal cortex (PFC)
Experiment: Golgi staining morphological analysis of PFC pyramidal cells
Assay type: in vivo, mouse
Conditions: for spine density versus branch orders, overall: FIG. 17A; for spine density versus branch orders, basal dendrites: FIG. 17B; for spine density versus branch orders, apical dendrites: FIG. 17C; for spine density at 30 micron intervals from the soma, overall: FIG. 18A; for spine density at 30 micron intervals from the soma, basal dendrites: FIG. 18B; for spine density at 30 micron intervals from the soma, apical dendrites: FIG. 18C
Protocol: Details of the animals, materials, and methods used are provided following the discussion section below. Briefly, all studies discussed below were conducted using three groups of animals designated “Young” (2 months of age at the beginning of the 8-week study, 4 months of age at time of testing; “Old” (22 months of age at beginning of study, 24 months of age at time of testing); and “Treatment” (“Old” mice who received GL-II-73 in the drinking water for 8 weeks prior to evaluation of cognitive ability and pyramidal cell morphology). The last study further included a fourth group of animals, “Treatment+Washout” which were treated the same as the “Treatment” group except that the GL-II-73 was removed for a 1 week “wash-out” period prior to evaluation of pyramidal cell morphology.
Table 1 summarizes the results of a quantitative assessment of the morphological properties of Layer II/III pyramidal cells of prefrontal cortex (PFC) between Young, Old, and Treatment groups. […] Check marks represent countable spines; X's represent uncountable spines. The total number of sampled neurons in the PFC study was 72 cells with a total of 1,888 dendritic segments, 193,698 total dendritic lengths (μm), and 199,529 spine counts, respectively.
Table 2 summarizes the results of a quantitative assessment of the morphological properties of Layer II/III pyramidal cells of prefrontal cortex (PFC) between Young, Old, Old-Treatment, and Old-washout groups. As noted above, mice assigned to the “Young” group were 2 months of age at the beginning of the 8-week study and 4 months of age at time of testing; mice assigned to the “Old” group were 22 months of age at beginning of study, 24 months of age at time of testing; mice assigned to the “Old-Treatment” group were the same age as the “Old” group and received GL-II-73 in their drinking water for 8 weeks prior to evaluation; and mice assigned to the “Old-washout” group were the same age and treatment as the “Old-Treatment” group except that the GL-II-73 was removed for a 1 week “wash-out” period prior to evaluation. Differences in total dendritic lengths, overall spine counts, and overall spine density between groups were determined via ANOVA analysis.
Drug preparation and administration: The compound GL-II-73 was administered in the drinking water for 8 weeks, and made fresh every other day to prevent any deterioration of the compound in the water at room temperature. The solution was prepared at 30 mg/kg for an estimated volume of 8 ml/mouse/day, based on previous calculations. For the pilot study in the 5×FAD mouse model, the compound GL-II-73 was prepared for intra peritoneal injection only, at a dose of 10 mg/kg. Vehicle solution was made of 85% distilled water, 14% propylene glycol and 1% tween-80.
Brain collection and Golgi staining: Twenty-four hours after the completion of the behavioral testing, mice were euthanized using cervical dislocation. Brains were carefully collected from the skull, rinsed with MilliQ water and immersed in the Golgi staining solution provided by Neurodigitech (San Diego, CA). Six hours after the beginning of the incubation, the solution was changed to provide fresh solution. Then brains were left incubating for 14 days at room temperature, in the dark. For better results, vials containing the brains were gently swirled 3 times a week. After the incubation period, the staining solution was discarded and replaced by a storage solution and brains (n=4 per group) were shipped to Neurodigitech for morphological analysis.
Slice preparation: Brains were cut at 40 μm thickness using a cryostat and mounted on glass slides. The slides included serial coronal sections that covered the anterior-to-posterior axis of the brain. The sampling of ROIs included the basal and apical dendrites of pyramidal cells in Layers II/III of PFC. […]

[1] = Table 1, first study, Old, Treatment group, 4 samples
[2] = Table 2, washout study, Old, Treatment group, 4 samples
[3] = Table 2, Old, Washout group, 4 samples
[4] = washout study, FIG. 15B, Treatment vs Old mice, p<0.05
[5] = washout study, FIG. 15B, Washout vs Old mice, p<0.05
[6] = washout study, FIG. 16B, Old+Treatment vs Old mice, p<0.05
[7] = washout study, FIG. 16B, Washout vs Old mice, p<0.05
[8] = washout study, Old+Treatment vs Old mice, p<0.05
[9] = washout study, Washout vs Old mice, p<0.05

## C#Cc1ccc2c(c1)C(c1ccccc1F)=N[C@H](C)c1c(C(=O)N(C)C)ncn1-2 (stereo in doubt) [GL-II-73, 8-ethynyl-6-(2-fluorophenyl)-N,N,4-trimethyl-4H-benzo[f]imidazo[1,5-a][1,4]diazepine-3-carboxamide]
Table 1, first study, Old, Treatment group (GL-II-73 in drinking water 8 weeks), 4 samples
  Total segments: 666
[1]
  Overall spinal density: 1.01
  Total lengths (microns): 66,656 microns
  total spine counts: 67,107
Table 2, washout study, Old, Treatment group (8 weeks GL-II-73), 4 samples
  Total segments: 1180
[2]
  Overall spinal density: 1.11
  Total lengths (microns): 58395 microns
  total spine counts: 64863
Table 2, Old, Washout group (8 weeks GL-II-73, then 1 week wash-out), 4 samples
  Total segments: 1253
[3]
  Overall spinal density: 1.17
  Total lengths (microns): 59414 microns
  total spine counts: 69305
First study, FIG. 3A, treatment group vs young mice, p>0.05
  total dendritic lengths: no significant difference in total dendritic length between the young mice and the treatment group
First study, FIG. 3B, between groups, p>0.05
  total dendritic lengths, basal dendrite: no difference was found in the basal dendrite between groups
First study, FIG. 3B, treatment group vs old mice, p<0.05
  total dendritic lengths, apical dendrites: higher total dendritic lengths of apical dendrites than old mice
First study, FIG. 4A, treatment group vs old mice, p<0.05
  total spine counts: higher spine counts than old mice
First study, FIG. 4B, treatment group vs old mice, p<0.05
  total spine counts, apical dendrites: higher spine count than old mice
First study, FIG. 4B, treatment group vs young mice, p>0.05
  total spine counts, basal dendrites: no difference in both basal and apical dendrites between young mice and the treatment group
First study, FIG. 5A, treatment group vs old mice, p<0.05
  overall spine density: higher density than old mice
First study, FIG. 5B, treatment group vs old mice, p>0.05
  spine density, apical dendrites: no difference between old mice and the treatment group
First study, FIG. 6A, treatment group vs old mice, p<0.05
  spine density × branch orders, overall: higher density at the 1st branch order than old mice
First study, FIG. 6B, treatment group vs old mice, p<0.05
  spine density × branch orders, basal dendrites: significantly higher density at the 1st branch order than old mice
First study, FIG. 6C, treatment group vs old mice, p<0.05
  spine density × branch orders, apical dendrites: higher density at the 1st order than old mice
First study, FIG. 7A, Sholl analysis, treatment group vs old mice, p<0.05
  spine density × every 30 micron interval from soma, overall: higher density at 180 micron interval from soma than old mice
First study, FIG. 7C, treatment group vs old mice, p<0.05
  spine density × every 30 micron interval from soma, apical dendrites: higher density at 180 micron interval from soma of the dendritic field than old mice
First study, FIG. 8A, old vs treatment group, p<0.05
  frequency of intersections × 30 micron interval relative to soma, overall: significant reductions at a distance of 120-150 micron from the soma between old and young mice as well as between old and the treatment group
First study, FIG. 8B, old vs treatment group, p>0.05
  frequency of intersections × 30 micron interval, basal dendrites: a trend of decrease was found at 120-150 micron interval from soma between Old and Young as well as old and the treatment group
First study, FIG. 8C, treatment group vs old mice, p<0.05
  frequency of intersections × 30 micron interval, apical dendrites: higher frequency at 120-150 micron interval from soma than old mice
Washout study, FIG. 15A, Old+Treatment vs Old mice, p<0.05
  total spine counts: more spine counts than Old mice
Washout study, FIG. 15A, Washout (1 week after 8 weeks GL-II-73) vs Old mice, p<0.05
  total spine counts: more spine counts than Old mice
[4]
  total spine counts, apical dendrites: higher spine counts
  total spine counts, basal dendrites: higher spine counts
[5]
  total spine counts, apical dendrites: higher spine counts
  total spine counts, basal dendrites: higher spine counts
Washout study, FIG. 16A, Old+Treatment vs Old mice, p<0.05
  overall spine density: higher spine density than Old mice
Washout study, FIG. 16A, Washout vs Old mice, p<0.05
  overall spine density: higher spine density than Old mice
[6]
  spine density, apical dendrites: Old mice exhibited a lower spine density than Young, Old+Treatment and Washout mice
  spine density, basal dendrite: Old mice showed a significant decrease of spine density in the basal dendrite as compared to Young, Old+Treatment and Washout mice
[7]
  spine density, apical dendrites: Old mice exhibited a lower spine density than Young, Old+Treatment and Washout mice
  spine density, basal dendrite: Old mice showed a significant decrease of spine density in the basal dendrite as compared to Young, Old+Treatment and Washout mice
[8]
  spine density versus branch orders, overall: higher spine density at the 2nd to 6th
  spine density versus branch orders, basal dendrites: higher density at the 5th branch order than Old mice
  spine density versus branch orders, apical dendrites: higher density at the 2nd branch order than Old mice
  spine density at 30 micron intervals from the soma, overall: higher spine density at 150 um to 210 um from soma
  spine density at 30 micron intervals from the soma, basal dendrites: higher density between 150 um and 180 um from soma
  spine density at 30 micron intervals from the soma, apical dendrites: higher density at 180 um to 210 um from soma
[9]
  spine density versus branch orders, overall: 3rd to 6th branch orders
  spine density versus branch orders, basal dendrites: higher density at the 5th branch order than Old mice
  spine density versus branch orders, apical dendrites: higher spine density at the 5th to 6th branch orders than Old mice
  spine density at 30 micron intervals from the soma, overall: higher spine density at 90 um to 210 um from soma
  spine density at 30 micron intervals from the soma, basal dendrites: higher density between 120 um and 180 um from the soma than Old mice
  spine density at 30 micron intervals from the soma, apical dendrites: higher spine density at 120 um to 210 um from soma
